The target in experiment [1] is EGFR L858R/T790M/C797S mutant kinase (Homo sapiens (Human), UniProt P00533, C797S/L858R/T790M). Description: HTRF kinase assay, EGFR L858R/T790M/C797S mutant kinase. Format: biochemical. The conditions noted are these: 120 minutes at room temperature. The source says: (§1) Test Example 1. Determination of the Inhibitory Effect of the Compounds of the Present Invention on the Activity of EGFR del19/T790M/C797S and EGFR L858R/T790M/C797S Mutant Kinases
(§2) Experimental objective: The objective of this test example is to test the inhibitory activity of the compounds on the activity of EGFR del19/T790M/C797S and EGFR L858R/T790M/C797S mutant kinases.
(§3) Experimental method: This experiment used Cisbio's HTRF kinase assay method (Cisbio #62TK0PEB), wherein a catalytic reaction occurred between the substrate polypeptide TK and ATP in the presence of the tyrosine kinase with EGFR del19/T790M/C797S or EGFR L858R/T790M/C797S mutation, the substance was phosphorylated, and the activity of the kinase was characterized by measuring the content of the phosphorylated substrate generated during the reaction, and the half inhibitory concentration IC50 of the compound on the activity of EGFR del19/T790M/C797S or EGFR L858R/T790M/C797S mutant kinase was obtained.
(§4) Specific Experimental Operations were as Follows: • the kinase reaction was carried out in a white 384-well plate (Perkin Elmer #6008280), and 1-5 μL of compounds of different concentrations which were diluted with 1% DMSO-containing ddH2O were added; to the positive control wells were added 1-5 μL of 1% DMSO-containing ddH2O, followed by 1-5 μL of 0.5-5 nM 4×EGFR del19/T790M/C797S or EGFR L858R/T790M/C797S mutant kinase solution which was diluted with Dilution buffer (5× kinase buffer, MgCl2 6.65 Mm, MnCl2 1.33 mM, DTT 1.33 mM); to the negative control wells were added 1-5 μL of Dilution buffer; to all the wells were added 1-5 μL of 4 μM 4× substrate TK solution which was prepared with 10× Dilution buffer, and finally added 1-5 μL of 24 μM 4×ATP solution which was diluted with Dilution buffer to start the reaction; after reacting at room temperature for 120 minutes, 10 μL of detection solution (TK antibody 16 nM, XL665 0.5 μM) was added to each well, same was reacted at room temperature in the dark for 20 minutes, and then the […] was detected using a BioTek Synergy H1 microplate reader.
(§5) The percent inhibition data for compound-treated wells was calculated according to the positive control wells (DMSO control wells) and negative control wells (no kinase added) on the plate {% inhibition rate=100−[(test compound value−negative control value)]/(positive control value−negative control value)×100}. GraphPad prism was used to fit different concentrations and corresponding percent inhibition rate data to a 4-parameter nonlinear logistic equation to calculate IC50 values.
In general terms: TR-FRET usually uses a lanthanide donor and a delayed reading to cut background.

Experiment [2] concerns the target EGFR del19/T790M/C797S mutant kinase (Homo sapiens, UniProt P00533, C797S/DEL746-750/T790M). Description: HTRF kinase assay, EGFR del19/T790M/C797S mutant kinase. In kind it is biochemical. As to conditions: 120 minutes at room temperature.
Text: as §1, §2, §3, §4, §5

In experiment [3] the test system is Ba/F3 EGFR Del19/T790M/C797S cells. The experiment can be described thus: Cell proliferation inhibition assay (Cell Titer-Glo), Ba/F3 EGFR Del19/T790M/C797S. In kind it is cell-based. The conditions noted are these: 72 hours, read-out: Ba/F3 EGFR Del19_T790M_C797S IC50. The source says:
Test Example 2: Cell Proliferation Inhibition Assay
Experimental objective: The objective of this test example is to test the inhibitory activity of compounds on the proliferation of different EGFR C797S drug-resistant mutant cell lines Ba/F3 EGFR Del19/T790M/C797S, Ba/F3 EGFR L858R/T790M/C797S, and Ba/F3 EGFR Del19/C797S.
• Ba/F3 EGFR Del19/T790M/C797S cells were purchased from KYinno Biotechnology Co., Ltd.; • Ba/F3 EGFR Del19/C797S cells were purchased from CoBioer Biosciences Co., Ltd.; • Ba/F3 EGFR L858R/T790M/C797S cells were purchased from CoBioer Biosciences Co., Ltd.; • Cell Titer-Glo was purchased from Promega, with a catalog number of G7573; • RPMI 1640 was purchased from Gibco, with a catalog number of 22400089; • FBS was purchased from Gibco, with a catalog number of 10091148; • cell culture plates were purchased from Corning, with a catalog number of 3610.
The inhibitory activity of the compound on the proliferation of different EGFR C797S drug-resistant mutant cell lines was detected using the Cell Titer-Glo method. The different cell lines were cultured in RPMI 1640 complete culture medium containing 10% FBS under conditions of 37° C. and 5% CO2, the cells were collected by centrifugation when growing to a certain density, and adjusted to appropriate cell density after counting, the cells were spread on a white 96-well plate at 90 μL/well, and cultured in a 37° C., 5% CO2 incubator overnight, prepared compound solutions of different concentrations were added at 10 μL/well, corresponding solvent controls were set, and all wells were cultured in a 37° C., 5% CO2 incubator for 72 hours, 50 μL of CellTiter-Glo solution was added to each well, shook and mixed evenly, and incubated in the dark for 10 minutes, and a BioTek Synergy H1 microplate reader was used for reading.
The luminescence signal value was used to calculate the inhibition rate. Graphpad Prism software was used to fit the concentration and inhibition rate to a nonlinear regression curve, so as to obtain the IC50 value, as shown in Tables 3 and 4 below for details.

The test system of experiment [4] is Ba/F3 EGFR Del19/C797S cells. The experiment can be described thus: Cell proliferation inhibition assay (Cell Titer-Glo), Ba/F3 EGFR Del19/C797S. Format: cell-based. As to conditions: 72 hours, read-out: Ba/F3 EGFR Del19_C797S IC50. In outline: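 Ba/F3 cells carrying EGFR Del19/T790M/C797S or Del19/C797S, grown in RPMI 1640 with 10% FBS, were plated overnight and then exposed to serially diluted compound for 72 h at 37° C, 5% CO2. Viability was read by CellTiter-Glo luminescence; IC50 came from a nonlinear fit of inhibition rate against concentration.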
(In ATP-based viability assays light output follows the ATP content of the culture.)

The structures appear in SMILES notation.

Sequence of EGFR L858R/T790M/C797S mutant kinase (P00533 25-1210 T790M/C797S/L858R): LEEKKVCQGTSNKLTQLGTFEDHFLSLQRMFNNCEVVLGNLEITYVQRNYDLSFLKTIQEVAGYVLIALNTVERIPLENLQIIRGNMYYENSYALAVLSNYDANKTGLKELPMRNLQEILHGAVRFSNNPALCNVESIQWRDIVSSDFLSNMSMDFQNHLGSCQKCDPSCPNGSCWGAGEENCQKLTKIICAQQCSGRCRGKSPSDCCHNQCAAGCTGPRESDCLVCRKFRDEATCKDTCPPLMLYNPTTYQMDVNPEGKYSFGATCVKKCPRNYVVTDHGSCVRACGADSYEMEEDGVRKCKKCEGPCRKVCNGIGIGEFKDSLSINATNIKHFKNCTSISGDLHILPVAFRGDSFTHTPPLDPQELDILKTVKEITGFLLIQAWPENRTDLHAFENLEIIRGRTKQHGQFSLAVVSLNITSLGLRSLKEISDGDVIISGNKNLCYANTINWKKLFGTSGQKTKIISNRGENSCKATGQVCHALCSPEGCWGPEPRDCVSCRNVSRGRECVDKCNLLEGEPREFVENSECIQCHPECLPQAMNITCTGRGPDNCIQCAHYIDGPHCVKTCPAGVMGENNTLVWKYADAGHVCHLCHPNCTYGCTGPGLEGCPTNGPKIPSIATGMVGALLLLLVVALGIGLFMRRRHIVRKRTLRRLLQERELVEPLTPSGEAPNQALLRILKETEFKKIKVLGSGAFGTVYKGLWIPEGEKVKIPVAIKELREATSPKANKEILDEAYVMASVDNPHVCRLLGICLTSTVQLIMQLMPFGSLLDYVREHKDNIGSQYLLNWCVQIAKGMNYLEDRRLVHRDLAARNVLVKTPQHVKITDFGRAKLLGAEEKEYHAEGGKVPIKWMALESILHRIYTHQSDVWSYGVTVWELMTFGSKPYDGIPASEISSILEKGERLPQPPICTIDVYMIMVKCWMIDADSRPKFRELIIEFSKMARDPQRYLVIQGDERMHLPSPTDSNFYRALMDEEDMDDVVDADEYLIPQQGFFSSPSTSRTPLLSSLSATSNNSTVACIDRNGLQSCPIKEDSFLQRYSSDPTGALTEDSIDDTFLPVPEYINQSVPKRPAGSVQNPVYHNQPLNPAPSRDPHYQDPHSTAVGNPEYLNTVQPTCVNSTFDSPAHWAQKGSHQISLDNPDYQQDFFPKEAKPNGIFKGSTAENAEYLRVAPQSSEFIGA
Sequence of EGFR del19/T790M/C797S mutant kinase (P00533 with tags, fused parts or gaps C797S/DEL746-750/T790M limits assumed): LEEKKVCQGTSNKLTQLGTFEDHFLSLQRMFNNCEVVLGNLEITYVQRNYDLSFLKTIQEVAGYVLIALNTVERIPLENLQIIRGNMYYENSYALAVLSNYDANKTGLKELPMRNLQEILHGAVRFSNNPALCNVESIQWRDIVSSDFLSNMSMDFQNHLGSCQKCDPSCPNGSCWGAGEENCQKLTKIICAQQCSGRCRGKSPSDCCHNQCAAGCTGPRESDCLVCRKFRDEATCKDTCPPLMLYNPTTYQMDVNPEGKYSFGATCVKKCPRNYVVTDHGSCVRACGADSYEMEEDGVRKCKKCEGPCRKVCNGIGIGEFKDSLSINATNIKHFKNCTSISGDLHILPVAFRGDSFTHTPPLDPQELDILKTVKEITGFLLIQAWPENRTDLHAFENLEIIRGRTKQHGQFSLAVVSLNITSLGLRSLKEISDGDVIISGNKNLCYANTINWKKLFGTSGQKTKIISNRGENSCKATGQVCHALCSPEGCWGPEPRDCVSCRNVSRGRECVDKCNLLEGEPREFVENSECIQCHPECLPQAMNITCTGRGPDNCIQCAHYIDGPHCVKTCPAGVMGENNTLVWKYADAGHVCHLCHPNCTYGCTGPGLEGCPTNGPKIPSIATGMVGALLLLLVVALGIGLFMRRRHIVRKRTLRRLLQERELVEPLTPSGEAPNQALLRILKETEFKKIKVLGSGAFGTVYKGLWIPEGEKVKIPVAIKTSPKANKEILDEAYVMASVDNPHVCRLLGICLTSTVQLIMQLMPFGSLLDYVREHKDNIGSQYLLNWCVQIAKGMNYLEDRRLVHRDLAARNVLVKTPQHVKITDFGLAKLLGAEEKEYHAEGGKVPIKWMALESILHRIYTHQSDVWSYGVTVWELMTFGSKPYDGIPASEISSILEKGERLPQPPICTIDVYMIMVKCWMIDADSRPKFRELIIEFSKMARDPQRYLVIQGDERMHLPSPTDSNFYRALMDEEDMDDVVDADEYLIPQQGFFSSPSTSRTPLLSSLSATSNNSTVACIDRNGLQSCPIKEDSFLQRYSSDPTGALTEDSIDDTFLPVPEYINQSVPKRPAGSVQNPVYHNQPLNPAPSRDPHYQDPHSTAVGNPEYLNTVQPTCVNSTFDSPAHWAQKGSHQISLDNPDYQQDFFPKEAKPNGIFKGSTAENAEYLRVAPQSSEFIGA

With `CC(C)c1ccc(N2CC(CS(C)(=O)=O)C2)c2cnc(Nc3ccnc(-c4cnn(S(=O)(=O)C5CC5)c4)n3)cc12` [Example 1, N-(2-(1-(cyclopropylsulfonyl)-1H-pyrazol-4-yl)pyrimidin-4-yl)-5-isopropyl-8-(3-((methanesulfonyl)methyl)azetidin-1-yl)isoquinolin-3-amine], the IC50 in experiment [1] was 0.51 nM; in experiment [2], 0.58 nM; in experiment [3] it was 10 nM; in experiment [4], 14 nM.

As to `CC(C)c1ccc(N2C[C@H](CS(C)(=O)=O)[C@H]2C)c2cnc(Nc3ccnc(-c4cnn(C5CCN(C)CC5)c4)n3)cc12` [Example 14, 5-isopropyl-8-((2R,3S)-2-methyl-3-((methanesulfonyl)methyl)azetidin-1-yl)-N-(2-(1-(1-methylpiperidin-4-yl)-1H-pyrazol-4-yl)pyrimidin-4-yl)isoquinolin-3-amine], the IC50 stood at 0.73 nM in experiment [1], 3.6 nM in experiment [2] and 54 nM in experiment [4].

For `CC(C)c1ccc(N2C[C@H](CS(C)(=O)=O)[C@H]2C)c2cnc(Nc3ccnc(-c4cnn(C5CC5)c4)n3)cc12` [Example 15, N-(2-(1-cyclopropyl-1H-pyrazol-4-yl)pyrimidin-4-yl)-5-isopropyl-8-((2R,3S)-2-methyl-3-((methanesulfonyl)methyl)azetidin-1-yl)isoquinolin-3-amine], the IC50 in experiment [1] came to 1.9 nM; in experiment [2] it was 2.5 nM; in experiment [4] it was 41 nM.

Take `CC(C)c1ccc(N2C[C@H](CS(C)(=O)=O)[C@H]2C)c2cnc(Nc3ccnc(-c4cnn(C5COC5)c4)n3)cc12` [Example 20, 5-isopropyl-8-((2R,3S)-2-methyl-3-((methanesulfonyl)methyl)azetidin-1-yl)-N-(2-(1-(oxetan-3-yl)-1H-pyrazol-4-yl)pyrimidin-4-yl)isoquinolin-3-amine]: the figures for the IC50 in experiment [1] and in experiment [2] were 0.92 nM and 6.2 nM, respectively.

Take `CC(C)c1ccc(N2C[C@H](CS(C)(=O)=O)[C@H]2C)c2cnc(Nc3ccnc(-c4cnn(CC5CCO5)c4)n3)cc12` (stereo partly drawn) [Example 21, 5-isopropyl-8-((2R,3S)-2-methyl-3-((methanesulfonyl)methyl)azetidin-1-yl)-N-(2-(1-(oxetan-2-ylmethyl)-1H-pyrazol-4-yl)pyrimidin-4-yl)isoquinolin-3-amine]: the IC50 in experiment [1] amounted to 0.6 nM; in experiment [2], 3.9 nM; in experiment [4], 96 nM.

Consider `CC(C)c1ccc(N2C[C@H](CS(C)(=O)=O)[C@H]2C)c2cnc(Nc3ccnc(-c4cnn(C)c4)n3)cc12` [Example 24, 5-isopropyl-N-(2-(1-methyl-1H-pyrazol-4-yl)pyrimidin-4-yl)-8-((2R,3S)-2-methyl-3-((methanesulfonyl)methyl)azetidin-1-yl)isoquinolin-3-amine], for which the IC50 is 0.3 nM in experiment [1], 3.6 nM in experiment [2], 10 nM in experiment [3] and 29 nM in experiment [4].

On to `CC(C)c1ccc(N2C[C@H](CS(C)(=O)=O)[C@H]2C)c2cnc(Nc3ccnc(-c4cnn(CCF)c4)n3)cc12` [Example 27, N-(2-(1-(2-fluoroethyl)-1H-pyrazol-4-yl)pyrimidin-4-yl)-5-isopropyl-8-((2R,3S)-2-methyl-3-((methanesulfonyl)methyl)azetidin-1-yl)isoquinolin-3-amine], for which the IC50 in experiment [1] worked out at 1.9 nM; in experiment [2], 8.9 nM; in experiment [4], 40 nM.

For the origin of these results see patent US20250368616A1, “NITROGEN-CONTAINING HETEROCYCLIC DERIVATIVE INHIBITOR, AND PREPARATION METHOD THEREFOR AND USE THEREOF” (SHANGHAI HANSOH BIOMEDICAL CO., LTD., priority 2021, published 2025).
